Laboratory results published in patent US20150065440A1 (Progen Pharmaceuticals Limited, priority 2007, published 2015).

Format: in vivo, Sprague-Dawley rats
Conditions: rat, in vivo, iv
Description: Adult male Sprague-Dawley (SD) rats (approx 300 g) were used for the experiment. Femoral artery cannulae was implanted and exteriorised following isoflurane anaesthesia. Jugular vein artery cannulae was implanted and exteriorized. […]. Blood samples (˜325 μL) were collected into sample tubes containing the anticoagulant sodium citrate from femoral artery catheter pre-dose and at 5, 20 minutes and 2, 5, 8, 12, 24, and 48 hours post-dose, and kept at reduced temperature (approx 4° C.) until centrifuged. Blood samples were centrifuged, plasma separated and 50 μL aliquot of the plasma transferred to a scintillation vial for counting. At the end of the experimental period animals were euthanased via a lethal overdose of pentobarbital. The level of radioactivity in the plasma was measured following mixing of samples with Packard Ultima Gold liquid scintillation counting cocktail. Counting was conducted on a Beckman liquid scintillation counter (LS6500) or Packard TriCarb liquid scintillation counter for 10 minutes per sample. Results (DPM, calculated from an in-built quench curve in the counter) were corrected for background prior to any calculations. The pharmacokinetic parameters were calculated using PK Solutions 2.0 software (Summit Research Services, Ohio, U.S.A.) and are summarised in Table 11 below.

CC(C)CCC[C@@H](C)[C@H]1CC[C@H]2[C@@H]3CCC4CC(OCc5cn([C@@H]6O[C@H](COS(=O)(=O)[O-])[C@@H](O[C@H]7O[C@H](COS(=O)(=O)[O-])[C@@H](O[C@H]8O[C@H](COS(=O)(=O)[O-])[C@@H](OS(=O)(=O)[O-])[C@H](OS(=O)(=O)[O-])[C@H]8OS(=O)(=O)[O-])[C@H](OS(=O)(=O)[O-])[C@H]7OS(=O)(=O)[O-])[C@H](OS(=O)(=O)[O-])[C@H]6OS(=O)(=O)[O-])nn5)CC[C@]4(C)[C@H]3CC[C@]12C.[Na+].[Na+].[Na+].[Na+].[Na+].[Na+].[Na+].[Na+].[Na+].[Na+] (stereo partly drawn) [Compound 70, 4-(Cholestan-3-yl-oxymethyl)[1,2,3]triazol-1-yl 2,3,4,6-tetra-O-sodium sulfonato-α-D-glucopyranosyl-(1→4)-2,3,6-tri-O-sodium sulfonato-α-D-glucopyranosyl-(1→4)-1-deoxy-2,3,6-tri-O-sodium sulfonato-β-D-glucopyranoside]
Half-life (iv): 10.3 h
